# In patent US12617745B2, “Curcusone diterpenoids and uses thereof” (Purdue Research Foundation, priority 2020, dated 2026):
# Like-named read-outs stand apart in the source and are kept apart here. Peptide text beside a SMILES is read from it. * marks the point of attachment. Cbz = O=C(OCc1ccccc1)*
# What was measured:
# MCF-7 cells = assay: Cytotoxicity in MCF-7 cells, WST-1 assay; assay type: cell-based, human; details: for IC50 / EC50 values against MCF-7 cells, in words / cytotoxicity / anticancer activity in MCF-7 cells, comparative statement / EC50: 24 h compound treatment, WST-1; for IC50: read-out: IC50 value / antiproliferation activity in MCF-7 cells; for EC50: read-out: EC50, viability of MCF-7 cells
# Excerpt: The absorbance at 420 nm and 630 nm was then acquired using a BioTek Synergy H1 microplate reader. Cell viability results were plotted in GraphPad Prism 7.
# BRAT1 [1] = target: T1, BRAT1 (Homo sapiens, UniProt Q6PJG6); assay: In situ competitive MS-based target identification; assay type: cell-based; details: MCF-7 cells, 30 μM 1d 4 hours, 10 μM 37
# T1 sequence (Q6PJG6 1-821): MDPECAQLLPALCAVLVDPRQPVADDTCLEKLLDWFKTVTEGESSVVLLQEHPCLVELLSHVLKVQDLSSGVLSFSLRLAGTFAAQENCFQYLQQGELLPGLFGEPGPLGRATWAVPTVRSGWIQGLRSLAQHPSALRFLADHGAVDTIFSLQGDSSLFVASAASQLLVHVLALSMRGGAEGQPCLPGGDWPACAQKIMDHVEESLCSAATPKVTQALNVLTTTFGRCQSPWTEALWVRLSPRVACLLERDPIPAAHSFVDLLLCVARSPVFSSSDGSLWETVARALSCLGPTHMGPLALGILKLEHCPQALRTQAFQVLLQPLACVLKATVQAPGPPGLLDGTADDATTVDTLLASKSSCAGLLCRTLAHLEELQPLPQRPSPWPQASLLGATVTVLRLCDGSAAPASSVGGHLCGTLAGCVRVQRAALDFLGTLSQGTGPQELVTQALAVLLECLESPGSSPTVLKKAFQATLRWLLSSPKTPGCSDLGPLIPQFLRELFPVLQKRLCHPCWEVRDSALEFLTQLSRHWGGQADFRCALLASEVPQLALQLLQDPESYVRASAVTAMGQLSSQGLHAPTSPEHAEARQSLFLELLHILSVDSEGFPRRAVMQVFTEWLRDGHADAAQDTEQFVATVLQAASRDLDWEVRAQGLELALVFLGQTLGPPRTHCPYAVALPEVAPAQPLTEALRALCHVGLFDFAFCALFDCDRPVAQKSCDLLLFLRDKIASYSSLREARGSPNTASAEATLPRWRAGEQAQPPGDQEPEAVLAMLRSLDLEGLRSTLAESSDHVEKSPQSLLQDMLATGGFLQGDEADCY
# Procedure: MCF-7 (8e6) cells were seeded in 10 cm Petri dishes and incubated overnight. […] Lysate was prepared as described above. Lysate (2 mg/mL, 0.75 mL) was treated with 10 μM 37 (50× stock in DMSO) for one hour at r.t. and then subjected to click chemistry. […] (Click Chemistry Tools, 50 μM, 50× stock in DMSO), tris(2-carboxyethyl)phosphine hydrochloride (TCEP) (1 mM, Sigma-Aldrich C4706-2G, 50× fresh stock in water), tris[(1-benzyl-1H1,2,3-triazol-4-yl)methyl]amine (TBTA) (100 μM, Click Chemistry Tools, 16× stock in DMSO:tBuOH 1:4), and copper(II) sulfate (Sigma-Aldrich, 1 mM, 50× stock in water) were added to the proteome and left to react for one hour at r.t. […] Samples were analyzed by LC-MS/MS (see below) and the MS data was processed with MaxQuant (see below).
# Peptides were resuspended in water with 0.1% formic acid (FA) and analyzed using EASY-nLC 1200 nano-UHPLC coupled to Q Exactive HF-X Quadrupole-Orbitrap mass spectrometer (Thermo Scientific). […]
# The MS data was analyzed with MaxQuant9 (V1.6.1.0)^7 and searched against the human proteome (Uniprot) and a common list of contaminants (included in MaxQuant). […] The minimum peptide length was set to 6 amino acids and peptide re-quantification, label-free quantification (MaxLFQ) and “match between runs” were enabled. […]
# BRAT1 [2] = target: T1, BRAT1; assay: In situ dose response via competitive pulldown assay with probe 37; assay type: cell-based
# Procedure: HeLa (2.0e6) cells were seeded in 60 mm dishes. […] The lysates were prepared and quantified as described above. Lysates (2 mg/mL, 140 μL) was treated with 10 μM 37 (50× stock in DMSO) for one hour at r.t. and then subjected to click chemistry with biotin azide as described above for one hour at r.t. Proteins were precipitated, re-solubilized in 0.2% SDS in PBS, enriched with 50 μL streptavidin beads, and washed as described above. Proteins were eluted using 30 μL SDS-PAGE reducing loading buffer (4×), subjected to 10 min heat denaturation (95° C.), separated using a 11% SDS-PAGE gel, and visualized via Western blotting as described above. Images were quantified with ImageJ. EC50 and Kitz-Wilson binding constants were calculated using GraphPad Prism 7.
# FLAG-BRAT1 = target: T2, FLAG-BRAT1 (Homo sapiens, UniProt Q6PJG6); assay: Thermal shift assay of FLAG-BRAT1 via Western blotting; assay type: binding; details: HEK-293T lysate, 30 μM, 34° C. to 61° C.
# T2 construct: expressed in transfected cells; host or cells: HEK-293T, transient transfection, lysate
# T2 sequence (Q6PJG6 1-821): T1 sequence (Q6PJG6 1-821)
# Procedure: HEK-293T (8e6) cells were seeded in a 10 cm dish in DMEM without pen-strep. After incubating overnight, 24 μg of FLAG-BRAT1 pExp plasmid was incubated for 15 min at r.t. with 96 μL of PEI MAX™ 40K (Polysciences 24765-1) in final volume of 2 mL Opti-MEM (Gibco 11058021). The mixture was then carefully added to the cells. After 24 hours, the cells were carefully washed twice with PBS, and the lysate was prepared by sonication in PBS as described above.
# The supernatant was carefully isolated. SDS-PAGE reducing loading buffer (4×) was added to the isolated supernatant, and proteins were transferred to a PVDF (0.2 μm) membrane using wet transfer with tris-glycine transfer buffer (20% methanol) for one hour at 350 mA. Membrane was blocked with 5% milk in tris-buffered saline with 0.1% Tween 20 (TBST) for 30-60 minutes at r.t. and then incubated with primary rabbit polyclonal BRAT1 antibody (Novus NB100-2256, 1:2000 in 5% milk in TBST) overnight shaking at 4° C. Membrane was washed three times for five min with TBST and incubated with anti-rabbit Alexa Fluor 647 (Jackson ImmunoResearch Inc., 1:500 in 5% milk in TBST) for one hour at r.t. Membrane was then washed 3× with TBST and visualized with an Azure Biosystems Sapphire Biomolecular Imager. […]
# HeLa cells = assay: Global proteomics profiling using LC-MS/MS; assay type: cell-based, human; details: 3 μM, 24 h, among 3347 quantified proteins
# [3] = test system: HeLa, MCF-7 and MDA-MB-231 cells; assay: Transwell migration assay; assay type: cell-based, human; details: 1 μM, 24 hours, all cell lines
# BRAT1 [4] = target: T1, BRAT1; assay: In situ competitive pulldown assay via Western blotting; assay type: cell-based; set-up: endogenous in cells; host or cells: HeLa, MCF-7, MDA-MB-231 (live cells or HeLa lysate)
# BRAT1 [5] = target: T1, BRAT1; assay: BRAT1 protein level after 1d treatment (global proteomics, Western blot); assay type: cell-based; set-up: endogenous in cells; host or cells: HeLa, MCF-7, MDA-MB-231 (live cells or HeLa lysate); details: added for the final 4 hours of 1d treatment
# BRAT1 [6] = target: T1, BRAT1; assay: Competitive BRAT1 pulldown with iodoacetamide (binding reversibility); set-up: endogenous in cells; host or cells: HeLa (HeLa lysate); details: HeLa lysate, IAA 30 mM 1 h pre- or posttreatment, 37 10 μM
# Procedure: To evaluate the binding reversibility, we performed a competitive BRAT1 pulldown assay with the irreversible cysteine-reactive probe iodoacetamide (IAA). HeLa lysate was treated with 37 (10 μM) for 1 h with either pre- or posttreatment with IAA (30 mM) for 1 h followed by enrichment and Western blot analysis as described above.
compound,measurement,setting,value
"C=C(C)[C@H]1CCC(=C)[C@@H]2[C@@H]1C=C(C)C(=O)[C@]21CC=C(C)C1=O [compound 3, (+)-Spirocurcasone]",IC50,MCF-7 cells,62.7 µM
"C=C(C)C1CCC(=C)C2C3=C(C[C@H](C)C3=O)C(=O)C(C)=C[C@@H]12 (single isomer, unassigned; (-)) [1b, (−)-Curcusone B]","EC50 values against MCF-7 cells, in words",MCF-7 cells,micromolar
same,cytotoxicity value of synthetic sample versus naturally isolated counterpart,MCF-7 cells; MCF-7 cells,virtually identical
(−)-pyracurcasone [compound 33],"cytotoxicity / anticancer activity in MCF-7 cells, comparative statement",MCF-7 cells,slightly better antiproliferation activity
same,IC50,MCF-7 cells,8 µM
"C=C(C)C1CCC(=C)C2C3=C(CC(C)(O)C3=O)C(=O)C(C)=CC12 (single isomer, unassigned; (-)) [1d, (−)-Curcusone D]",protein competed from probe 37 enrichment,BRAT1 [1],best competed target was BRAT1
same,"EC50 values against MCF-7 cells, in words",MCF-7 cells,micromolar
same,EC50,"MCF-7 cells; Homo sapiens, MCF7",13.8 µM
same,EC50,"BRAT1 [2]; in situ treatment of live HeLa cells, read-out: EC50, competition of BRAT1 enrichment by 37",2.7 µM
same,concentration at 50% fractional occupancy (f occ. (50)) of BRAT1,"BRAT1 [2]; live HeLa cells, 4 h",2.7 µM
same,thermal stability of FLAG-BRAT1,FLAG-BRAT1,thermal destabilization
same,number of down-regulated proteins,HeLa cells,42
same,number of up-regulated proteins,HeLa cells,36
same,reduction of cell migration,[3],~4 fold
same,competition of BRAT1 enrichment by 37,BRAT1 [4]; HeLa and MDA-MB-231 cells,competed the enrichment of BRAT1
same,competition of BRAT1 enrichment by 37,"BRAT1 [4]; MCF-7 cells, 4 hours",competed
CC(C)C[C@@H](C=O)NC(=O)[C@H](CC(C)C)NC(=O)[C@H](CC(C)C)NC(=O)OCc1ccccc1 [MG132] (Cbz-Leu-Leu-Leu-aldehyde),BRAT1 protein levels with proteasome inhibitor,BRAT1 [5],recovered BRAT1 protein levels
"NC(=O)CI [IAA, iodoacetamide]",competition of BRAT1 enrichment by 37,BRAT1 [6],competed BRAT1 enrichment by 37
(−)-dimericursone A [2a],"cytotoxicity / anticancer activity in MCF-7 cells, comparative statement",MCF-7 cells,no toxicity
same,EC50,MCF-7 cells,> 100 µM
